Test results: PMC10046369, “Low-Affinity/High-Selectivity Dopamine Transport Inhibition Sufficient to Rescue Cognitive Functions in the Aging Rat” (Biomolecules, 2023)

What was measured:
Test in all cases: biochemical
Design in all cases: KINOMEscan competition binding panel, per cent of control
Details in all cases: read-out: %Ctrl @ 2800nM
[1] = molecular target: NEK1 (Homo sapiens, UniProt Q96PY6)
Procedure, shortened: (§1)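 Values are expressed as percent of control, calculated as ((test − positive control)/(negative control − positive control)) × 100, so lower numbers mean stronger hits. Binding was measured by KINOMEscan competition assay in a 450-kinase human panel including disease mutants, using the contractor's validated protocol.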

[2] = molecular target: T1, ERK1 (Homo sapiens, UniProt P27361)
T1 construct: gene MAPK3
T1 sequence (P27361 whole entry): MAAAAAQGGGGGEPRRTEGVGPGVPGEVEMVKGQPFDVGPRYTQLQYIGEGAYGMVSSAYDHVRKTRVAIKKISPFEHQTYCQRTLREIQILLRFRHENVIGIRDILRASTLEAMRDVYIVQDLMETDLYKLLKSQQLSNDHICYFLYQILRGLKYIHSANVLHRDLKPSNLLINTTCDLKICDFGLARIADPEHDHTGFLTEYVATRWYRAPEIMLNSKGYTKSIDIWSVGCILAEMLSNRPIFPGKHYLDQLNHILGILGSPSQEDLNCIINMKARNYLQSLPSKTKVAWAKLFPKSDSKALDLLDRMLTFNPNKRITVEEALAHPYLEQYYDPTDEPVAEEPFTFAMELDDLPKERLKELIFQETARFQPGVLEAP
Procedure, shortened: as §1

[3] = molecular target: NLK (Homo sapiens, UniProt Q9UBE8)
Chain of NLK (Q9UBE8 whole entry): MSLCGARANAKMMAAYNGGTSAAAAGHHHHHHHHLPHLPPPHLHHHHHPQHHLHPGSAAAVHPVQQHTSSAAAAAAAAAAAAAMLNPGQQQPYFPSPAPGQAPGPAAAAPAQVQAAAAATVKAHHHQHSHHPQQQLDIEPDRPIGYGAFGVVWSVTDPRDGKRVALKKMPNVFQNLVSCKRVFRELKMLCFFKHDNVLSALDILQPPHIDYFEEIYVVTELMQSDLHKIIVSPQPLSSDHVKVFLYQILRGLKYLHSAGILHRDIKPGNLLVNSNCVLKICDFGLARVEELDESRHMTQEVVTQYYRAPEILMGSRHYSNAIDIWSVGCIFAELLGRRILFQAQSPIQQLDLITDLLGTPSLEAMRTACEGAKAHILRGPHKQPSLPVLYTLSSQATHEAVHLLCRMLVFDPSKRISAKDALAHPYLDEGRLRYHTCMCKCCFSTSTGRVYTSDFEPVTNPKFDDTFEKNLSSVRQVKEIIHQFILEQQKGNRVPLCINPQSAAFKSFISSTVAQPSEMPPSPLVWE
Procedure, shortened: as §1

[4] = molecular target: TNK1 (Homo sapiens, UniProt Q13470)
Procedure, shortened: as §1

[5] = molecular target: PDGFRA (Homo sapiens, UniProt P16234)
Procedure, shortened: as §1

[6] = molecular target: T2, S6K1 (Homo sapiens, UniProt P23443)
T2 construct: gene RPS6KB1
T2 sequence (P23443 whole entry): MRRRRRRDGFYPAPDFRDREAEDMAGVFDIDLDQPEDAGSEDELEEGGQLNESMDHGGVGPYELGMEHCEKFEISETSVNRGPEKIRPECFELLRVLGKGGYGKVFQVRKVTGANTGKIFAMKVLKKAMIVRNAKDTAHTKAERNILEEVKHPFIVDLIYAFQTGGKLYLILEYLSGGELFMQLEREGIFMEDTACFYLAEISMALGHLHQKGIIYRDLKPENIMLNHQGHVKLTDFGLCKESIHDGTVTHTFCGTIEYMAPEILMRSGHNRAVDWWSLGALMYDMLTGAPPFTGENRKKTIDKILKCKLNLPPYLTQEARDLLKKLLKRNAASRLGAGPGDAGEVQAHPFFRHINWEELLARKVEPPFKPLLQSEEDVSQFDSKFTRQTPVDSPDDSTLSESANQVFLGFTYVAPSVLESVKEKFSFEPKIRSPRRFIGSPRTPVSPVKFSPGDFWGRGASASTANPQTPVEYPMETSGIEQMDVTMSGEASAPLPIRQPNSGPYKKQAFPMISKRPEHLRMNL
Procedure, shortened: as §1

[7] = molecular target: AURKB (Homo sapiens, UniProt Q96GD4)
Chain of AURKB (Q96GD4 whole entry): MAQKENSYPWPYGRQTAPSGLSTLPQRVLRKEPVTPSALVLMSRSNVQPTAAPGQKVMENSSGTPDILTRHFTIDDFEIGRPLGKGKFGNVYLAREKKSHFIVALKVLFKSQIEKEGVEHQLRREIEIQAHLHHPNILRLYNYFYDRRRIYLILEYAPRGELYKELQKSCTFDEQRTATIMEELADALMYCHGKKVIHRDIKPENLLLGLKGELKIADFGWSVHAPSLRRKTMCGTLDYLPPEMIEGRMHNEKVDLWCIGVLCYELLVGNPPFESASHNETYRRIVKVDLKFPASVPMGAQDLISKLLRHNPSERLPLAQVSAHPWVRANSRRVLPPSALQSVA
Procedure, shortened: as §1

[8] = molecular target: STK16 (Homo sapiens, UniProt O75716)
Chain of STK16 (O75716 whole entry): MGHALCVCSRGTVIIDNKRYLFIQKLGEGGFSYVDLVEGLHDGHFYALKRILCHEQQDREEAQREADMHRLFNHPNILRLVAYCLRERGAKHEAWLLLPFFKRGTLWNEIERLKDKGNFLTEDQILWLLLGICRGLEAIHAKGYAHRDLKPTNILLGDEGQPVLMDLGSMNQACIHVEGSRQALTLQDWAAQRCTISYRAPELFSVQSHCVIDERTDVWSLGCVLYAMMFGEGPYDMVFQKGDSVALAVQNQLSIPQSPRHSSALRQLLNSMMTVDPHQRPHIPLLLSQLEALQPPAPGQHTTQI
Procedure, shortened: as §1

[9] = molecular target: SRMS (Homo sapiens, UniProt Q9H3Y6)
Procedure, shortened: as §1

[10] = molecular target: CIT (Homo sapiens, UniProt O14578)
Procedure, shortened: as §1

[11] = molecular target: LCK (Homo sapiens, UniProt P06239)
Procedure, shortened: as §1

[12] = molecular target: T3, ICK (Homo sapiens, UniProt Q9UPZ9)
T3 construct: gene CILK1
Procedure, shortened: as §1

[13] = molecular target: RET(V804L) (Homo sapiens, UniProt P07949, V804L)
Procedure, shortened: as §1

[14] = molecular target: RIOK1 (Homo sapiens, UniProt Q9BRS2)
Chain of RIOK1 (Q9BRS2 whole entry): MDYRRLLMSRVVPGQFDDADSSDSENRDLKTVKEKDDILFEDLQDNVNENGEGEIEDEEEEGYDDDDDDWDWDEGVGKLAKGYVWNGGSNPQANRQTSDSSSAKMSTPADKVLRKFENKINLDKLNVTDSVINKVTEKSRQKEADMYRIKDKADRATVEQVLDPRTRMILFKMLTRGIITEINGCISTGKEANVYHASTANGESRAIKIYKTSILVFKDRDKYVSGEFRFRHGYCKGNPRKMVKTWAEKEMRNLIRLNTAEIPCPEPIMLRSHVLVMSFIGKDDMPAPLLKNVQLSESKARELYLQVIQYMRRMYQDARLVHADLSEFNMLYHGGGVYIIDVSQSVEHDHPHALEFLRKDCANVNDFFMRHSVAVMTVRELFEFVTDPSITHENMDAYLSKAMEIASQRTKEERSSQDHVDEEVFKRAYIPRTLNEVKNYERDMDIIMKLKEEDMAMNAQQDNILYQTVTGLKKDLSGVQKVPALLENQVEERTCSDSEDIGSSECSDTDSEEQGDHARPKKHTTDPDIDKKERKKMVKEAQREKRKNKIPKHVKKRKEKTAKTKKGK
Procedure, shortened: as §1

[15] = molecular target: MAP3K1 (Homo sapiens, UniProt Q13233)
Procedure, shortened: as §1

[16] = molecular target: NEK3 (Homo sapiens, UniProt P51956)
Procedure, shortened: as §1

[17] = molecular target: T4, TIE2 (Homo sapiens, UniProt Q02763)
T4 construct: gene TEK
Procedure, shortened: as §1

[18] = molecular target: DAPK3 (Homo sapiens, UniProt O43293)
Chain of DAPK3 (O43293 whole entry): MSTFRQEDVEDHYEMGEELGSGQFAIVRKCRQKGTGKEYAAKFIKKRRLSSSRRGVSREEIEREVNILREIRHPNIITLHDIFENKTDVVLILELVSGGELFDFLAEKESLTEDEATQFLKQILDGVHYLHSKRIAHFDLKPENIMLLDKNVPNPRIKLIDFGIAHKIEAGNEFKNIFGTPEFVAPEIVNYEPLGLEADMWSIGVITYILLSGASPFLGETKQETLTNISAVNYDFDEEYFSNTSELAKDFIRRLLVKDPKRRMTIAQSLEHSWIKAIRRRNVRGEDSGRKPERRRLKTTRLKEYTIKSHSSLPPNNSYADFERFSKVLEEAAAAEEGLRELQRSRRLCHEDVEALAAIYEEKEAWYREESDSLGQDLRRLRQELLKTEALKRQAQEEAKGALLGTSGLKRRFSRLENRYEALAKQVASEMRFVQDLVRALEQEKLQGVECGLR
Procedure, shortened: as §1

[19] = molecular target: EGFR(L747-E749del, A750P) (Homo sapiens, UniProt P00533, A750P/DEL747-749)
Procedure, shortened: as §1

[20] = molecular target: CDK4 (Homo sapiens, UniProt P11802)
Chain of CDK4 (P11802 whole entry): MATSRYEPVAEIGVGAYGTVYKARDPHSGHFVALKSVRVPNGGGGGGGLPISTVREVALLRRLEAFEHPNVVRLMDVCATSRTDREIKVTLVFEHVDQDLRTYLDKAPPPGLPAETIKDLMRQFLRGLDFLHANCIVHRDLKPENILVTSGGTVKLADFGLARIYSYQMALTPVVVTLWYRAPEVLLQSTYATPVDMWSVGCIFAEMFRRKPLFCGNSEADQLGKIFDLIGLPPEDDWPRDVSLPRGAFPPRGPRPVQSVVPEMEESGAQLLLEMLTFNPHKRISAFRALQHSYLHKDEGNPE
Procedure, shortened: as §1

[21] = molecular target: HIPK4 (Homo sapiens, UniProt Q8NE63)
Procedure, shortened: as §1

[22] = molecular target: EIF2AK1 (Homo sapiens, UniProt Q9BQI3)
Procedure, shortened: as §1

[23] = molecular target: T5, ABL1(Q252H)-nonphosphorylated (Homo sapiens, UniProt P00519, Q252H)
T5 construct: nonphosphorylated
Procedure, shortened: as §1

[24] = molecular target: CLK4 (Homo sapiens, UniProt Q9HAZ1)
Procedure, shortened: as §1

[25] = molecular target: STK35 (Homo sapiens, UniProt Q8TDR2)
Chain of STK35 (Q8TDR2 whole entry): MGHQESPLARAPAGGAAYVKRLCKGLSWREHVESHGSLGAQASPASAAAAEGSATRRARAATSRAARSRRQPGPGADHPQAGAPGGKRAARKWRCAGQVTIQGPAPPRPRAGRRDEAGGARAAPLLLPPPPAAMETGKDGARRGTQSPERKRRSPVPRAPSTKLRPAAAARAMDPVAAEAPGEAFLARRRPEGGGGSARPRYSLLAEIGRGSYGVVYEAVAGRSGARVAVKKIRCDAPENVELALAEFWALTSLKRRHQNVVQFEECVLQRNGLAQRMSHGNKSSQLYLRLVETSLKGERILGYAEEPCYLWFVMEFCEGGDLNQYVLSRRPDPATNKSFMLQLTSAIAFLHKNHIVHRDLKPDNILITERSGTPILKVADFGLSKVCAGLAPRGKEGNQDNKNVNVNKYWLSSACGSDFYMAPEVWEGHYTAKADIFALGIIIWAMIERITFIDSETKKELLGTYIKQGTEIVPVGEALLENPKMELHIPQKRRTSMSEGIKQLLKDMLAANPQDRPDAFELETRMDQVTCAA
Procedure, shortened: as §1

[26] = molecular target: EPHA7 (Homo sapiens, UniProt Q15375)
Chain of EPHA7 (Q15375 whole entry): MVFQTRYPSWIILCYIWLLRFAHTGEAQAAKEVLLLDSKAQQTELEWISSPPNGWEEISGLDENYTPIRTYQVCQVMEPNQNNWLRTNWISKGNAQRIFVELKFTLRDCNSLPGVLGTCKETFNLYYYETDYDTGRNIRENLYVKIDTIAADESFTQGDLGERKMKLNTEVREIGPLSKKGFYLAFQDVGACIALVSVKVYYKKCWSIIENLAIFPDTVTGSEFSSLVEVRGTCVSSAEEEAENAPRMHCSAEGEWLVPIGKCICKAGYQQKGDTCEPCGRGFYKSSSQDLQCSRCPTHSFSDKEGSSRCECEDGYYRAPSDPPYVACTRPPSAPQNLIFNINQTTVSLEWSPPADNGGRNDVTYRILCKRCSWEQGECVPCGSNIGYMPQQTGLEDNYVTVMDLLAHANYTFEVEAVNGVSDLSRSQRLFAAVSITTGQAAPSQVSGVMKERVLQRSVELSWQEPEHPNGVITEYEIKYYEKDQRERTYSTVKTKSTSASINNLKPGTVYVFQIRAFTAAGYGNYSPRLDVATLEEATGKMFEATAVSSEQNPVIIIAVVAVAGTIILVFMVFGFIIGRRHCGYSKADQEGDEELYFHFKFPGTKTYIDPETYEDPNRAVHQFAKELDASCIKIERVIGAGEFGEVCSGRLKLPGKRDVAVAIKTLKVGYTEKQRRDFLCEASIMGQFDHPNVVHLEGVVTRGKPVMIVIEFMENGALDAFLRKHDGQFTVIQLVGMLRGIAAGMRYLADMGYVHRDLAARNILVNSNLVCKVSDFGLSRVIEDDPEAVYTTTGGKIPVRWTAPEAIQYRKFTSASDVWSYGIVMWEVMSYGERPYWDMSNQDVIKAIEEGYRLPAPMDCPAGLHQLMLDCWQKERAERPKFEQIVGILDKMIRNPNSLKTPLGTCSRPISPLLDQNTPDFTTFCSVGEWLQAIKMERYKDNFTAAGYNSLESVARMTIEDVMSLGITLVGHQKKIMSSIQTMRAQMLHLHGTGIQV
Procedure, shortened: as §1

Molecule `[O-][S@@+](Cc1cncs1)C(c1ccccc1)c1ccccc1` [S-CE-123, (S)-5-((Benzhydrylsulfinyl)Methyl)Thiazole] has a remaining binding at 2.8 µM [1] of 90%, a remaining binding at 2.8 µM [2] of 91% and a remaining binding at 2.8 µM [3] of 97%. For the same molecule, the remaining binding at 2.8 µM [4] was 74%, the remaining binding at 2.8 µM [5] was 98% and the remaining binding at 2.8 µM [6] was 90%. The remaining binding at 2.8 µM [7] was 78%, the remaining binding at 2.8 µM [8] was 97% and the remaining binding at 2.8 µM [9] was 99%. For the same molecule, the remaining binding at 2.8 µM [10] was 74%, the remaining binding at 2.8 µM [11] was 100% and the remaining binding at 2.8 µM [12] was 91%. For the same molecule, the remaining binding at 2.8 µM [13] was 91%, the remaining binding at 2.8 µM [14] was 77% and the remaining binding at 2.8 µM [15] was 85%. The remaining binding at 2.8 µM [16] was 100%, the remaining binding at 2.8 µM [17] was 100% and the remaining binding at 2.8 µM [18] was 96%. For the same molecule, the remaining binding at 2.8 µM [19] was 93%, the remaining binding at 2.8 µM [20] was 100% and the remaining binding at 2.8 µM [21] was 100%. It also gave a remaining binding at 2.8 µM [22] of 100%, a remaining binding at 2.8 µM [23] of 66% and a remaining binding at 2.8 µM [24] of 100%. It also gave a remaining binding at 2.8 µM [25] of 98% and a remaining binding at 2.8 µM [26] of 96%.
